According to patent US11447742B2, “Compositions and methods for activation and overexpression of secondary metabolites in microorganisms” (Prospective Research, Inc., priority 2016, dated 2022):
“Also recorded” adds a separate entry of the source.

What was measured:
S. coelicolor [1] = assay: Induction of pigmented antibiotic (actinorhodin) production in S. coelicolor plate cultures spotted with GBLs; format: cell-based, Streptomyces coelicolor; settings: for production of pigmented antibiotics (actinorhodin): S. coelicolor on SMMS plates, 2 μL spot with 16.5-165 μg racemic GBLs X and XI at inoculation, versus control plates without GBL; for antibiotic production (dark spot): S. coelicolor SMMS plates spotted with 1-100 μg racemic mixture of I-VII and VB-D at inoculation, observed after 42 hours; for dose dependence of antibiotic production (diameter of dark spot): amount of GBL mixture I-VII and VB-D 1-100 μg
Method: The formulas I-VII in FIG. 10 illustrate the structures of the enantiomers in the mixture of GBLs tested for ability to elicit antibiotic production, the results of which are shown in the plates in FIG. 9. […] The mixture of GBLs was added to a pure culture of non-cognate microorganism S. coelicolor. Streptomycete strains were cultured in complex medium R5 or in minimal medium MMS. See Kieser, T. et al., Practical Streptomyces Genetics, John Innes Institute, 2000.
Spore stock of S. coelicolor was used to inoculate SMMS agar (solid SMM medium) and the spore suspension on the surfaces of the plates was allowed to dry. The GBL amounts were added at the time of inoculation.
The two plates in the top of the photograph of FIG. 9 are controls cultures of S. coelicolor. The control plate on the left is a negative control in which no GBL nor vehicle was added. The control plate on the right was contacted with the vehicle only, which was a mixture of methanol and water.
A racemic mixture of GBLs containing the non-naturally occurring compounds 1-VII and virginiae butenolide-D (VB-D) was synthesized, and an amount of about 500 μg was dissolved in 100 μL of vehicle to yield a 5 mg/ml concentration solution. The plates of the second row from left to right were spotted with 20 μL (100 μg), 10 μL (50 μg), 5 μL (25 μg), and […] of the 10 mg/ml concentration solution, respectively. […] The fifth plate of the third row was spotted with 2 μL (1 μg) of a 1:10 dilution of the 10 mg/ml concentration solution.
FIG. 12 is a photograph of SMMS (supplemented minimal media solid) plates inoculated with a spore stock of S. coelicolor streaked to cover the surface of the medium in the plate. At the time of inoculation, 2 μL of a racemic solution containing each amount of a dilution of the racemic GBLs having formulas X and XI were deposited in the center of a plate. Plate 1a was spotted with 2 μL of a solution containing 16.5 μg of GBLs X and XI. Plates 2a and 2b were spotted with 2 μL of a solution containing 33 μg of GBLs X and XI. Plate 3a was spotted with a solution containing 49.5 μg of GBLs X and XI. Plates 4a and 4b were spotted with a solution containing 66 μg of GBLs X and XI. Plates 5a, 6a, 7a, were spotted with solutions containing 99 μg, 132 μg, and 165 μg of GBLs X and XI, respectively. Racemic mixture GBLs were present in equal molar amounts. […] No pigment production was observed on the control plates shown in FIG. 7 not contacted with GBLs.

S. glaucescens = assay: Principal component analysis of secondary metabolites of S. glaucescens small scale fermentations with GBLs; format: cell-based; settings: for induction of secondary metabolite production: S. glaucescens fermented in SMM medium, LC-MS data, versus untreated control (FIG. 17)
Method: S. glaucescens cells were grown in 3 mL cultures under 96 different conditions of medium, GBL choice, and GBL concentration. Each GBL solution was added to a tube in each of the following concentrations: 0.2 μM, 0.8 μM, 4 μM, 20 μM, and 100 μM. Media were a minimal medium SMM or a yeast enriched complex medium R5 (also called R2YE). The GBL indicated in FIG. 17 as PR001 and PR002 are shown in FIG. 16, and have the chemical formulae, respectively: 3-(1-hydroxyethyl)-4-(hydroxymethyl)dihydrofuran-2(3H)-one; and, 3-(1-hydroxyheptyl)-4-(hydroxymethyl)dihydrofuran-2(3H)-one.
Fermentations were incubated in 24-well blocks (CR 424, Enzyscreen B.V., Netherlands) with lids (1221a), and were shaken at 200 rpm for 5 days at 28° C. in an Infors HT incubator (Infors AG, Switzerland). For analysis, a C18 SPE-IT tip (57234-U from Sigma-Aldrich) was added to each fermentation which were further shaken at 400 rpm for one hour. Tips were removed and rinsed in deionized water, and were analyzed directly or stored for analysis. Analysis was collected at ionsense, Inc. (Saugus, Mass.) vaporized with a DART source at 400 C and 1 mm/s, and mass spectral data collected in a Thermo LTQ. Analysis used Progenesis QI from Nonlinear Dynamics (Waters).
Principal component analysis data of secondary metabolites induced by the GBLs in comparison to control absent GBL are shown in FIG. 17. […] Accordingly, 100 μM GBL was used in large scale fermentions.

S. coelicolor [2] = assay: Large scale S. coelicolor fermentation with GBL, extract fractionation and LC-MS identification of induced secondary metabolites; format: cell-based, Streptomyces coelicolor; settings: S. coelicolor 300 mL cultures in SMM, 100 μM GBL; for Desferrioxamine B production / Desferrioxamine E production / streptorubin B production / undecylprodigiosin production: 5 days; for Desferrioxamine B production: fraction 28, peak at 1.81, versus untreated control; for Desferrioxamine E production: fraction 28, peak at 2.09, versus untreated control; for streptorubin B production: fraction 41, peak at 3.6, versus untreated control; for undecylprodigiosin production: fraction 41, peak at 3.8, versus untreated control
Method: Yields of both known and unknown bioactive compounds regulated by the presence of signaling hormones are improved by contacting producing cells with an appropriate GBL. Secondary metabolites were isolated from cultures of cells. Triplicate 300 mL cultures of S. coelicolor in SMM, was treated with the synthetic racemic mixture of VB-D and seven enantiomers of the non-cognate GBL shown in FIG. 10, at a total concentration of 100 μM, and an identical culture was grown without GBL. Cells were grown for five days at 29 C shaking at 220 rpm. Triplicates were pooled with GBL-treated and control cultures pooled separately.
A slurry of absorbent resins HP-20, XAD-16, XAD-7 and XAD-4 was added (2-4% weight/volume) and shaking was continued overnight. The resin and cell mass were removed by filtration and were washed three times with 200 mL deionized water. Resin and cell mass were extracted three times with 100-300 mL methanol to elute secondary metabolites from the resin. This extract was concentrated by rotary evaporation to remove extraction solvent.
The crude extract was dissolved in 1-3 mL of dimethylsulfoxide (DMSO) and was injected into a reveleris C18 reverse phase column on a Gilson High-Pressure Liquid Chromatography system. A flow rate of 15 ml/min was run for 40 minutes using mobile phases of methanol with 0.1% formic acid, and water with 0.1% formic acid. Forty-eight fractions were collected from a twenty minutes gradient of solvent from 15% methanol to 95% methanol, and were analyzed for antibacterial content on soft agar lawns of each of a Gram negative indicator strain, Escherichia coli, and a Gram positive indicator strain, Bacillus subtilis.
Further, 10 μL fraction volumes of each fraction were injected into a Waters Xevo G2-S Q-TOF LCMS system for further analytical separation and mass identification.
Fraction 28 of each of the GBL and the control extracts were each analyzed by LC-MS-TOF.
Fraction 41 of each of the GBL and the control extracts were each analyzed by LC-MS-TOF. […] Fraction 41 was subjected to UV chromatogram of diode array HPLC detector analysis. Again at prominent peak at 3.83 was observed. This material was determined to be undecylprodigiosin by mass chromatogram shown in FIG. 25, which has an observed mass of 393.27 and a calculated mass of 394.25.

[3] = listed as synthetic non-cognate GBL

CCCCCCC(=O)C1C(=O)OCC1CO (stereo not drawn) [GBLs X and XI]
time of induction of production of the pigmented antibiotics (S. coelicolor [1]; S. coelicolor SMMS plates contacted with racemic GBLs X and XI): early induction | production of pigmented antibiotics (actinorhodin) (S. coelicolor [1]): pigmented antibiotic is produced only in response to treatment; also recorded: increased production of pigmented antibiotics | production of pigmented antibiotics (actinorhodin) (S. coelicolor [1]; listed as X and XI): production of the purple antibiotic, actinorhodin | dose dependence of antibiotic production (S. coelicolor [1]; S. coelicolor plates, increasing amount of GBLs X and XI (FIG. 3)): dose-dependent increase in antibiotic production

CCCCCCC(O)C1C(=O)OCC1CO (single isomer, unassigned) [3-(1-hydroxyheptyl)-4-(hydroxymethyl)dihydrofuran-2(3H)-one]
antibiotic production (dark spot) (S. coelicolor [1]; listed as VB-D and seven enantiomer GBLs thereof having the formulas I-VII): production of the blue antibiotic, actinorhodin, and red prodiginies | antibiotic production (dark spot) (S. coelicolor [1]; listed as compounds 1-VII and virginiae butenolide-D (VB-D)): produced antibiotic | antibiotic production (dark spot) (S. coelicolor [1]; listed as mixture of GBLs): production of an antibacterial activity was elicited | antibiotic production (S. coelicolor [1]; S. coelicolor SMMS plates with racemic mixture of I-VII and VB-D, after 24 hours): No antibiotic production was observed | dose dependence of antibiotic production (diameter of dark spot) (S. coelicolor [1]; S. coelicolor plates, listed as VB-D and seven enantiomer GBLs thereof having the formulas I-VII): monotonic dose-dependent response | dose dependence of antibiotic production (diameter of dark spot) (S. coelicolor [1]; S. coelicolor plates, listed as compounds 1-VII and virginiae butenolide-D (VB-D)): dose-dependent monotonically | induction of secondary metabolite production (S. glaucescens): induction of secondary metabolite production | Desferrioxamine B production (S. coelicolor [2]): induced | Desferrioxamine B production (S. coelicolor [2]; [3]): substantially enhanced or even induced | Desferrioxamine E production (S. coelicolor [2]): induced | Desferrioxamine E production (S. coelicolor [2]; [3]): substantially enhanced or even induced | streptorubin B production (S. coelicolor [2]): induced | streptorubin B production (S. coelicolor [2]; [3]): substantially enhanced or even induced | undecylprodigiosin production (S. coelicolor [2]): induced | undecylprodigiosin production (S. coelicolor [2]; [3]): substantially enhanced or even induced | production of unknown compound (peak at 1.84) (S. coelicolor [2]; fraction 28, versus untreated control): induced

CC(O)C1C(=O)OCC1CO (stereo not drawn) [3-(1-hydroxyethyl)-4-(hydroxymethyl)dihydrofuran-2(3H)-one]
distinction from control secondary metabolites produced absent GBL (principal component analysis) (S. glaucescens; S. glaucescens 3 mL cultures, 5 days, 0.2-100 μM GBL): greatest distinction from control | induction of secondary metabolite production (S. glaucescens): induction of secondary metabolite production | dose dependence of induction of secondary metabolites (S. glaucescens; S. glaucescens, GBL 0.2, 0.8, 4, 20, 100 μM): in a dose-dependent manner | concentration of maximal distinction from control (S. glaucescens; S. glaucescens, principal component analysis): 100 µM
